Key:
Test in all cases: relative viability (nuclei count vs DMSO), 5 days (fraction); higher = more cells survive
[1] = compound: C1COCCN1C2=NC(=NC3=C2OC4=C3C=CC=N4)C5=CC(=CC=C5)NC(=O)C6=CN=C(C=C6)N
Procedure, shortened: (§1)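 Only plates meeting two conditions passed: control CV below 25% and at least one doubling. Lung cancer cell lines, kept overnight at 37 °C in 1536-well plates, were pinned with five library-drug doses (not always all listed) √10 apart on vehicle-anchored plates and grown 5 days without medium change. A one-step fix, permeabilisation and Hoechst stain preceded 4× imaging and MetaXpress nuclear counting. Viability equals treated-well nuclei divided by vehicle-well nuclei, as the median over plates.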

SGI-1776 = compound: CN1CCC(CNc2ccc3ncc(-c4cccc(OC(F)(F)F)c4)n3n2)CC1 [SGI-1776]
Procedure, shortened: as §1

Entinostat = compound: Nc1ccccc1NC(=O)c1ccc(CNC(=O)OCc2cccnc2)cc1 [Entinostat]
Procedure, shortened: as §1

Entinostat + Bortezomib = compound: Nc1ccccc1NC(=O)c1ccc(CNC(=O)OCc2cccnc2)cc1 [Entinostat] + CC(C)C[C@H](NC(=O)[C@H](Cc1ccccc1)NC(=O)c1cnccn1)B(O)O [Bortezomib] (partner 0.002 µM)
Procedure, shortened: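 Medians of duplicate plates are given as relative viability. That measure is the nuclei count in treated wells divided by the count in vehicle wells. Counts were taken on 4× images of lung cancer cell lines in 1536-well plates, 5 days after pin-tool dosing the day after seeding with one drug alone or a fixed anchor-drug dose plus five library-drug doses (not always all listed) in √10 steps.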

## UMC-11
[1]; 0.02 µM
  relative viability: 0.983
[1]; 0.06325 µM
  relative viability: 1.05
[1]; 0.2 µM
  relative viability: 0.945
[1]; 0.6325 µM
  relative viability: 1.13
[1]; 2 µM
  relative viability: 0.818
SGI-1776; 0.08 µM
  relative viability: 1
SGI-1776; 0.8 µM
  relative viability: 1.04
SGI-1776; 2.53 µM
  relative viability: 0.923
SGI-1776; 8 µM
  relative viability: 0.779
Entinostat; 0.02 µM
  relative viability: 1.14
Entinostat; 0.06325 µM
  relative viability: 1.11
Entinostat; 0.2 µM
  relative viability: 0.918
Entinostat; 0.6325 µM
  relative viability: 0.287
Entinostat; 2 µM
  relative viability: 0.203
Entinostat + Bortezomib; first compound 0.02 µM
  relative viability: 0.557
Entinostat + Bortezomib; first compound 0.06325 µM
  relative viability: 0.708
Entinostat + Bortezomib; first compound 0.2 µM
  relative viability: 0.827
Entinostat + Bortezomib; first compound 0.6325 µM
  relative viability: 0.217
Entinostat + Bortezomib; first compound 2 µM
  relative viability: 0.111
